According to ChEMBL document CHEMBL2034926, “Design, synthesis, and biological action of 20R-hydroxyvitamin D3” (J Med Chem, 2012):
Calls of active or inactive are those of the source. The rule behind the calls is not given here.

Tests used:
[1] = Antiproliferative activity against NHEK cells incubated for 24 hrs by [3H]thymidine incorporation assay; type: functional, cell-based; details: Homo sapiens
HaCaT = assay: Inhibition of colony formation of human HaCaT cells; type: functional, cell-based
[2] = target: T1, CYP11A1 (cholesterol side-chain cleavage enzyme, mitochondrial) (Bos taurus, UniProt P00189); assay: Drug metabolism assessed as bovine CYP11A1-mediated compound metabolism after 2 mins incubation using compound loaded phospholipid vesicle by reverse phase HPLC; type: ADME; details: cattle, bovine CYP11A1 with compound-loaded phospholipid vesicles; read-out: Drug metabolism
T1 sequence (P00189 whole entry): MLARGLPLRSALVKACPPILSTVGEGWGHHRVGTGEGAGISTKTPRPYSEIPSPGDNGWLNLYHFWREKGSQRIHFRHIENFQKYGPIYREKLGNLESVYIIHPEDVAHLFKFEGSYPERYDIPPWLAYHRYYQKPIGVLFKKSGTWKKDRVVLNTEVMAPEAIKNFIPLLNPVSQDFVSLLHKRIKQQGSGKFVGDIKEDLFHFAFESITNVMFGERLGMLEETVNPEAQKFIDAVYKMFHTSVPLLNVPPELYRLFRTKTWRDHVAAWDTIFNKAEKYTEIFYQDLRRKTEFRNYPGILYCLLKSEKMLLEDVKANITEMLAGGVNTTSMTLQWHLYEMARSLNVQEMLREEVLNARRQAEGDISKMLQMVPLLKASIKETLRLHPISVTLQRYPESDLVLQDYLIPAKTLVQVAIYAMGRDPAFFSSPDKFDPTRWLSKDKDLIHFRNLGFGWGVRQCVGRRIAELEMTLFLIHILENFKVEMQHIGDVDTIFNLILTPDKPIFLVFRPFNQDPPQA

[3] = Antiproliferative activity against NHEK cells assessed as cell proliferation incubated for 24 hrs by [3H]thymidine incorporation assay relative to untreated control
HEK293 = assay: Stimulation of cell proliferation of NHEK cells at 0.1 nM incubated for 24 hrs by [3H]thymidine incorporation assay; type: functional, cell-based; details: Homo sapiens

Row | metabolised at 2 min [2] [%] | Structure (SMILES) | EC50 [1] [nM] | inhibition (HaCaT) | level, % of control [3] [%] | Activity (HEK293)
1 | 13 | C=C1CC[C@H](O)C/C1=C/C=C1\CCC[C@@]2(C)[C@H]1CC[C@@H]2[C@@](C)(O)CCCC(C)C | 0.728 | Active | <50 | –
2 | 58 | C=C1CC[C@H](O)C/C1=C/C=C1\CCC[C@@]2(C)[C@H]1CC[C@@H]2[C@](C)(O)CCCC(C)C | 4.09 | – | <50 | Active
3 | – | C=C1CC[C@H](O)C/C1=C/C=C1\CCC[C@]2(C)[C@@H]([C@H](C)CCCC(C)(C)O)CC[C@@H]12 | – | inactive | – | –
4 | – | C=C1/C(=C\C=C2/CCC[C@]3(C)[C@@H]([C@H](C)CCCC(C)(C)O)CC[C@@H]23)C[C@@H](O)C[C@@H]1O | – | Active | – | –
